From patent US20220340983A1, “SYSTEMS AND ASSAYS FOR IDENTIFYING PU.1 INHIBITORS” (Massachustts Institute of Technology, priority 2019, published 2022)
Starred links: 1 amine or outer side, 2 acyl side, 3 side chain; linkers in the order of their positions; H or OH if unused. Positions of bridges follow the written chain, without caps; N, C: chain ends. Non-standard residues stand in square brackets, D forms with d. Residues, ends and D or L forms follow the SMILES beside them. Chains are numbered I, II in the order given. Actinocin(9to1) = Cc1c2oc3c(C)ccc(C(=O)[*:1])c3nc-2c(C(=O)[*:2])c(N)c1=O; NMeV = CN[C@H](C(=O)O)C(C)C; Sar = CNCC(=O)O

Tests used:
[1] = test system: BV2 PU.1-Luciferase cells; assay: Cell viability (Hoechst staining) in BV2 PU.1-Luciferase cells; format: cell-based, mouse
Procedure: The BV2 PU.1-Luciferase cells (referred to as “cells” from here onward) were plated into a 384-well plate, using an automatic dispenser, 2000 cells per well in 30 μL of media composed of RPMI (Sigma-Aldrich), 10% FBS, 1% PenStrep (50 mg/mL) and 1% G418 (50 mg/mL) was plated. […] For reproducibility, each pin array with 384 compounds was added to 4 plates of cells. The cells and compounds were incubated at 37° C. for a period of time sufficient for the compounds to have an effect on the cells (about 2 days). Subsequently, automatic of 30 μL of BrightGlo (Promega) was dispensed into 2 of the 4 plates, in order to lyse the cells and drive the luminescence reaction whereafter the luminescence intensity was measured by a plate reader (Perkin Elmer EnVision). The two other plates were fixed by automatically dispensing 30 μL of 10% formaldehyde with 2μL Hoechst per 1 mL formaldehyde which were left at room temperature for one hour, followed by plate reading (Acumen (TTPLabTech)). A compound transfer and treatment would be repeated if reproducibility between the luminescence plates and/or the fixed Hoechst plates was lacking. […] Luminescence values used were corrected for crosstalk. Hoechst values were total fluorescence area per well. Determination of a positive hit considered both the reduction of luminescence as well as a possible confounding reduction in cell viability. […]

[2] = test system: HEK293 CMV-Luciferase cells; assay: Cell viability (Hoechst staining) in HEK293 CMV-Luciferase cells; conditions: for cell viability (Hoechst) (FIG. 2D): HEK293 CMV-Luciferase cell line, 1 μM; for cell viability (Hoechst-staining): HEK293 CMV-Luciferase line, 2-day incubation, actinomycin D, puromycin, 119113 10 μM, DB2313 2.5 μM
Procedure: Assays were conducted for percent luminescence and cell viability (Hoechst-staining) after a 2-day incubation under the following conditions. As negative controls pure DMSO and “mock” conditions (where nothing is added to the cells) were used.

[3] = test system: PU.1 dependent gene expression; assay: RT-qPCR of mRNA levels in BV2 PU.1-Luciferase cells (validation round 3); format: cell-based, mouse; conditions: 2-day treatment
Procedure: The Asinex1 and ChemDiv6 libraries contain molecules with unknown biological properties, but with low toxicity, high stability, and a broad structural diversity used to generate structure-activity-relationships (SAR) of the PU.1 inhibitors. […] In order to obtain the SAR, three rounds of validation were performed. In round 1, false-positive, non-specific luciferase quencher molecules were excluded using the commercially available HEK293 CMV-Luciferase line that constitutively expresses luciferase under the CMV promoter. In round 2, weak (non-significant) hits were eliminated according to degree of PU.1 inhibition in the absence of cell death. In round 3, drugs were selected that reduce PU.1-dependent gene expression with RT-qPCR.

PU.1 = target: T1, PU.1 (Mus musculus, UniProt P17433); assay: Luciferase assay (luminescence) in BV2 PU.1-Luciferase reporter cells; format: cell-based; conditions: luminescence reduction in BV2 PU.1-Luciferase cells, concentration-response, Hill's equation
T1 construct: endogenous in cells; host or cells: BV2 PU.1-Luciferase (mouse microglial BV2 with a 5xLBB-luciferase reporter integrated at ROSA26)
Description: PU.1 belongs to a group of transcription factors that all bind to the middle 5′-GGAA-3′ sequence. The flanking A/T rich sequence is crucial for conferring PU.1 selective binding. The flanking sequence requires unique structural properties of PU.1 and can therefore be targeted by drugs acting as allosteric inhibitors that prevent PU.1 from binding to the LBB. In order to achieve robust PU.1 binding, five tandem copies of the LBBs (5×LBB) were inserted into the luciferase promoter of the pGL4.23 plasmid. The region containing the five LBBs (5×LBB) was then subcloned into the pROSA26-1 plasmid (together with a PGKneo bpA plasmid for Neomycin/G418 resistance) that allows stable integration in chromosome 6 of the immortalized mouse microglial BV2 cell line (FIG. 2B). The stable cell line was created by selection with G418.
The BV2 PU.1-Luciferase cells (referred to as “cells” from here onward) were plated into a 384-well plate, using an automatic dispenser, 2000 cells per well in 30 μL of media composed of RPMI (Sigma-Aldrich), 10% FBS, 1% PenStrep (50 mg/mL) and 1% G418 (50 mg/mL) was plated. A robotic arm was used to transfer compounds in a 384-well format using a pin array into the plate containing the cells (here, 33 nL was transferred from a drug library containing 10 mM concentration of drugs for a final concentration of 10 μM per well). For reproducibility, each pin array with 384 compounds was added to 4 plates of cells. […] Subsequently, automatic of 30 μL of BrightGlo (Promega) was dispensed into 2 of the 4 plates, in order to lyse the cells and drive the luminescence reaction whereafter the luminescence intensity was measured by a plate reader (Perkin Elmer EnVision). The two other plates were fixed by automatically dispensing 30 μL of 10% formaldehyde with 2μL Hoechst per 1 mL formaldehyde which were left at room temperature for one hour, followed by plate reading (Acumen (TTPLabTech)). A compound transfer and treatment would be repeated if reproducibility between the luminescence plates and/or the fixed Hoechst plates was lacking. The drugs were selected and ranked according to the criteria described in FIG. 13. Luminescence values used were corrected for crosstalk. Hoechst values were total fluorescence area per well. Determination of a positive hit considered both the reduction of luminescence as well as a possible confounding reduction in cell viability. The formula used was y=(value−meanvalue)/stddev. […] Compounds were excluded if cell viability was reduced >2 standard deviations from the mean, using the same formula. The positive hits were then validated in multiple steps in order to identify true PU.1 inhibitors.
The degree of luminescence reduction of the hits was plotted with significant effective area under the curve in order to obtain an IC50.

Row | SMILES | IC50 (PU.1) | cell viability (Hoechst) (FIG. 2D) ([1]; BV2 PU.1-Luciferase cells, 1 μM) | cell viability (Hoechst-staining) ([1]; BV2 PU.1-Luciferase line, 2-day incubation, actinomycin D, puromycin, 119113 10 μM, DB2313 2.5 μM) | cell viability (Hoechst) (FIG. 2D) [2] | cell viability (Hoechst-staining) [2] | mRNA levels Apoe [3] | mRNA levels IL1β [3] | mRNA levels Lucif. [3] | mRNA levels Spi1 [3] | mRNA levels Trem2 [3] | mRNA levels Tyrobp [3]
1 | Cc1c2oc3c(C)ccc(C(=O)N[C@@H]4C(=O)N[C@H](C(C)C)C(=O)N5CCC[C@H]5C(=O)N(C)CC(=O)N(C)[C@@H](C(C)C)C(=O)O[C@@H]4C)c3nc-2c(C(=O)N[C@@H]2C(=O)N[C@H](C(C)C)C(=O)N3CCC[C@H]3C(=O)N(C)CC(=O)N(C)[C@@H](C(C)C)C(=O)O[C@@H]2C)c(N)c1=O [Actinomycin D] (I: T[dV]P[Sar][NMeV] / II: T[dV]P[Sar][NMeV]; ester I:1-I:C, II:1-II:C; linker I:N-II:N via Actinocin(9to1)) |  | toxic | reduced cell viability | toxic | reduced cell viability |  |  |  |  |  | 
2 | CCOC(=O)c1ccc(NS(=O)(=O)c2cc(Br)cc3c2N(C(C)=O)C(C)C3)cc1 (stereo not drawn) [Compound 1D3] | 1740 nM |  |  |  |  | 0.928 multiples of 1× | 1.144 multiples of 1× | 0.347 multiples of 1× | 0.965 multiples of 1× | 1.031 multiples of 1× | 1.102 multiples of 1×
3 | CCOc1ccc(S(=O)(=O)Nc2ccc3c(c2)c(C(C)=O)c(C)n3S(=O)(=O)c2ccc(OCC)cc2)cc1 [Compound 1A5] | 2930 nM |  |  |  |  | 1.200 multiples of 1× | 0.707 multiples of 1× | 0.371 multiples of 1× | 0.982 multiples of 1× | 1.085 multiples of 1× | 1.117 multiples of 1×
4 | Cn1nccc1C(=O)NCc1ccc2c(c1)CCN2C(=O)c1ccc(F)cc1 [Compound 2G2] | 4800 nM |  |  |  |  | 0.957 multiples of 1× | 0.887 multiples of 1× | 0.294 multiples of 1× | 0.958 multiples of 1× | 1.071 multiples of 1× | 0.963 multiples of 1×
5 | COc1cc(NS(=O)(=O)c2ccc3c(c2)CCN3S(C)(=O)=O)cc(OC)c1 [Compound 2F5] | 3540 nM |  |  |  |  | 0.790 multiples of 1× | 0.767 multiples of 1× | 0.590 multiples of 1× | 0.783 multiples of 1× | 0.901 multiples of 1× | 0.985 multiples of 1×
6 | COc1ccc(C[C@H](N)C(=O)N[C@H]2[C@@H](O)[C@H](n3cnc4c(N(C)C)ncnc43)O[C@@H]2CO)cc1 [puromycin] |  |  |  | ineffective | resistant |  |  |  |  |  | 
7 | Cc1c(Cl)ccc2sc(N3CCN(C(=O)CCS(=O)(=O)c4ccc(F)cc4)CC3)nc12 [Compound 2F9] | 1330 nM |  |  |  |  | 0.928 multiples of 1× | 0.821 multiples of 1× | 0.655 multiples of 1× | 1.020 multiples of 1× | 0.890 multiples of 1× | 0.904 multiples of 1×
8 | CSc1ccc(C=Cc2nc3ccccc3n2S(=O)(=O)c2ccc(F)c(C)c2)cc1 [Compound 2G10] | 507 nM |  |  |  |  | 0.899 multiples of 1× | 0.786 multiples of 1× | 0.531 multiples of 1× | 0.790 multiples of 1× | 0.993 multiples of 1× | 0.855 multiples of 1×
9 | CC(=NCCCn1ccnc1)c1c(C(F)(F)F)[nH]n(-c2nc3ccccc3s2)c1=O [Compound E01] | 663 nM |  |  |  |  | 0.823 multiples of 1× | 0.986 multiples of 1× | 0.416 multiples of 1× | 0.912 multiples of 1× | 0.903 multiples of 1× | 0.988 multiples of 1×

Now from value to compound, other results behind:

Row | IC50 (PU.1) | SMILES | cell viability (Hoechst) (FIG. 2D) ([1]; BV2 PU.1-Luciferase cells, 1 μM) | cell viability (Hoechst-staining) ([1]; BV2 PU.1-Luciferase line, 2-day incubation, actinomycin D, puromycin, 119113 10 μM, DB2313 2.5 μM) | cell viability (Hoechst) (FIG. 2D) [2] | cell viability (Hoechst-staining) [2] | mRNA levels Apoe [3] | mRNA levels IL1β [3] | mRNA levels Lucif. [3] | mRNA levels Spi1 [3] | mRNA levels Trem2 [3] | mRNA levels Tyrobp [3]
10 | 25 nM | Cn1nc(CC(=O)Nc2ccc(N3CCN(C(=O)OC(C)(C)C)CC3)cc2)c2ccccc2c1=O [Compound D06] |  |  |  |  | 1.233 multiples of 1× | 0.590 multiples of 1× | 0.153 multiples of 1× | 1.030 multiples of 1× | 1.510 multiples of 1× | 1.374 multiples of 1×
11 | 338 nM | COc1cc(NS(=O)(=O)c2ccc3c(c2)CC(C)N3C(=O)C2CCC2)cc(OC)c1OC (stereo not drawn) [Compound 2C3] |  |  |  |  | 1.133 multiples of 1× | 1.043 multiples of 1× | 0.430 multiples of 1× | 0.946 multiples of 1× | 1.179 multiples of 1× | 1.127 multiples of 1×
12 | 380 nM | CCOc1ccc(-c2nc(CSCC(=O)NCc3ccc(C)cc3)c(C)o2)cc1 [Compound 2H2] |  |  |  |  | 1.739 multiples of 1× | 0.706 multiples of 1× | 0.299 multiples of 1× | 1.251 multiples of 1× | 1.668 multiples of 1× | 1.952 multiples of 1×
13 | 3 nM | CCOC(=O)O[C@]1(C(=O)OCCl)CC[C@H]2[C@@H]3CCC4=CC(=O)C=C[C@]4(C)[C@H]3[C@@H](O)C[C@@]21C [Loteprednol, reference compound] |  |  |  |  | 1.579 multiples of 1× | 0.805 multiples of 1× | 0.265 multiples of 1× | 1.167 multiples of 1× | 0.979 multiples of 1× | 0.927 multiples of 1×
14 | 155 nM | Cc1ccc(-c2c(C)n3c4c(=O)n(C)c(=O)n(C)c4nc3n2CCO)cc1 [Compound 2H5] |  |  |  |  | 1.756 multiples of 1× | 0.185 multiples of 1× | 0.165 multiples of 1× | 1.316 multiples of 1× | 2.628 multiples of 1× | 2.422 multiples of 1×
